Data on five compounds can be found in paper PMC9524151, “Peptides derived from hookworm anti-inflammatory proteins suppress inducible colitis in mice and inflammatory cytokine production by human cells” (Frontiers in Medicine, 2022).

The share remaining is what is left of the initial amount, in per cent.

The conditions of data set [1]: 100% human serum, 37°C, RP-HPLC at 214 nm, triplicate; for relative rate of degradation in human serum over 24 h: 0, 3, 8, 24 h.
The next data set in a line: in vitro. Conditions: male, human, human serum.
A further data set deals with TNBS-induced colitis. Briefly: TNBS colitis model, oral administration. The settings on record: oral 5 mg/kg; compared with vehicle treated mice.

Ends that are not written are not given here.

For the compound TPEEHPLLMDLMGDPKKAEE [AIP2-20D6P], the “relative rate of degradation in human serum over 24 h” value in data set [1] is “degraded slower than AIP1-13 and ES2-10 but was less stable than AIP2-20”.

On to SQKEKDLLKE [ES2-10], for which the fraction remaining at 4 h, 20 μM in the data set “in vitro” was < 10%.

With PSKEKADLGKYKA [AIP1-13], in the data set “in vitro”, the share remaining at 4 h, 20 μM was < 10%.

Regarding TPEEHDLLMDLMGDPKKAEE [AIP2-20], in data set [1], the “relative rate of degradation in human serum over 24 h” value is “degraded slower than AIP1-13 and ES2-10”; the “detection of peptide in human serum after 24 h” value was “could still be detected after 24 h”. Also, the amount remaining at 8 h, 20 μM in the data set “in vitro” was > 50%.

For `O=C(O)c1cc(/N=N/c2ccc(S(=O)(=O)Nc3ccccn3)cc2)ccc1O` [sulfasalazine], in the data set with TNBS-induced colitis, the “colon length after oral administration” value is given as “Neither ES2-10 nor sulfasalazine were distinct from the vehicle treated mice”.
